For 18 compounds, Ki and IC50 results are on record in ChEMBL document CHEMBL1138730, “The synthesis and evaluation of [2.2.1]-bicycloazahydantoins as androgen receptor antagonists” (Bioorg Med Chem Lett, 2004).

For assay [1], the target named is T1, Androgen receptor (Homo sapiens, UniProt P10275).
T1 sequence (P10275 whole entry): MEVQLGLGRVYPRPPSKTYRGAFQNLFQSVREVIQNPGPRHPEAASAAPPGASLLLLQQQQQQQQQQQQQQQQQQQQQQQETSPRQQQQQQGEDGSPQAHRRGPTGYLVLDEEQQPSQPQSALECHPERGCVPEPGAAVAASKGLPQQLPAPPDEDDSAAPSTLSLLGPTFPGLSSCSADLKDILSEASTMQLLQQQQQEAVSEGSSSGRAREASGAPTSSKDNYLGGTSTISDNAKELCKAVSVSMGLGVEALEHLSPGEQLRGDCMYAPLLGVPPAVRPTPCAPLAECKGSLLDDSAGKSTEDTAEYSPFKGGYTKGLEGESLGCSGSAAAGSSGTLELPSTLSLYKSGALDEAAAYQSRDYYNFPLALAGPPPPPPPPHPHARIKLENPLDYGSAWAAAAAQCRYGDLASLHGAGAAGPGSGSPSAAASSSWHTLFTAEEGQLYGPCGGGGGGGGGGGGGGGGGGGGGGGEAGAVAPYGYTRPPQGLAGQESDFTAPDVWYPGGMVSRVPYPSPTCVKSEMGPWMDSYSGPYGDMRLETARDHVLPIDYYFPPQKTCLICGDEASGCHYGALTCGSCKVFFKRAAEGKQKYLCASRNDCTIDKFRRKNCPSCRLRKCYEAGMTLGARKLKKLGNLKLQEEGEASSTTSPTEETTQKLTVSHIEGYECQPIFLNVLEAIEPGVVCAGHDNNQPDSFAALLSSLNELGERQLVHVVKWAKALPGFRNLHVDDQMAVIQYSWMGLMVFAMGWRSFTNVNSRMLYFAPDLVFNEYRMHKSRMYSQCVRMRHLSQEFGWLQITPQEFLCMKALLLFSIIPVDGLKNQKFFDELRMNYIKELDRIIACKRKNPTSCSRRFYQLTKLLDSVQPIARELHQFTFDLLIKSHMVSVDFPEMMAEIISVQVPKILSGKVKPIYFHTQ
Description: Displacement of [3H]DHT from androgen receptor of human MDA-453 cells.

Assay [2] has as its target T1, Androgen receptor.
Description: In vitro antagonistic activity against androgen receptor of MDA-453 cells
The target in assay [3] is Androgen receptor (Homo sapiens, UniProt P10275). The conditions noted are these: lncap.
Description: In vitro antagonistic activity against mutant androgen receptor of LNCap cells

The term Ki denotes the dissociation constant of the complex between target and ligand, obtained from inhibition or displacement. A higher Ki goes with lower affinity. As usually defined, the IC50 is the concentration needed to halve the response being measured. `N#Cc1ccc(N2C(=O)[C@H]3[C@@H]4C[C@@H](CN4C(=O)Oc4ccc(F)cc4)N3C2=O)cc1C(F)(F)F` displayed a Ki in assay [1] of 10 nM. In addition, the figures for the IC50 in assay [2] and in assay [3] were 200 nM and 3920 nM, respectively.

`N#Cc1ccc(N2C(=O)[C@H]3[C@@H]4C[C@@H](CN4C(=O)c4ccccc4)N3C2=O)cc1C(F)(F)F` yielded a Ki in assay [1] of 120 nM. Also, the IC50 in assay [2] worked out at 300 nM; in assay [3] it was 2600 nM.

`N#Cc1ccc(N2C(=O)[C@H]3[C@@H]4C[C@@H](CN4C(=O)Oc4ccc(F)cc4)N3C2=O)c2ccccc12` gave a Ki in assay [1] of 40 nM. Moreover, the IC50 in assay [2] turned out to be 580 nM; in assay [3] it was 1870 nM.

Compound `CC(C)(C)OC(=O)N1C[C@H]2C[C@@H]1[C@H]1C(=O)N(c3ccc([N+](=O)[O-])cc3)C(=O)N21` registered a Ki in assay [1] of 230 nM. Moreover, the IC50 is 250 nM in assay [2] and 2390 nM in assay [3].

As to `CC(C)(C)OC(=O)N1C[C@@H]2C[C@H]1[C@]1(C)C(=O)N(c3ccc(C#N)c(C(F)(F)F)c3)C(=O)N21`, the IC50 in assay [2] amounted to 780 nM; in assay [3], 10400 nM.

Compound `O=C1[C@H]2[C@H]3CC[C@H](C3)N2C(=O)N1c1ccc([N+](=O)[O-])c2ccccc12` registered a Ki in assay [1] of 1 nM. Besides, the figures for the IC50 in assay [2] and in assay [3] were 1300 nM and more than 5000 nM, respectively.

As for `CC(C)(C)OC(=O)N1C[C@@H]2C[C@H]1[C@H]1C(=O)N(c3ccc(C#N)cc3)C(=O)N21`, the Ki in assay [1] was found to be 190 nM. The IC50 was more than 5000 nM in assay [2] and 3510 nM in assay [3].

In turn, `CC(C)(C)OC(=O)N1C[C@H]2C[C@@H]1[C@H]1C(=O)N(c3ccc(C#N)c(C(F)(F)F)c3)C(=O)N21` showed a Ki in assay [1] of more than 5000 nM. In addition, the IC50 in assay [2] and in assay [3] was more than 5000 nM in each case.

For `CC(C)(C)OC(=O)N1C[C@@H]2C[C@H]1[C@H]1C(=O)N(c3ccc([N+](=O)[O-])c4ccccc34)C(=O)N21`, the IC50 in assay [2] was 1330 nM; in assay [3], 5860 nM.

`CC(C)(C)OC(=O)N1C[C@@H]2C[C@H]1[C@@H]1C(=O)N(c3ccc([N+](=O)[O-])c4ccccc34)C(=O)N21`: the Ki in assay [1] amounted to 60 nM. In addition, the results for the IC50 in assay [2] and in assay [3] were 3320 nM and 4430 nM, respectively.

With `CC(C)(C)OC(=O)N1C[C@@H]2C[C@H]1[C@H]1C(=O)N(c3ccc(C#N)c(C(F)(F)F)c3)C(=O)N21`, the Ki in assay [1] came to 180 nM. In addition, the IC50 is 640 nM in assay [2] and more than 5000 nM in assay [3].

On to `O=C1[C@@H]2[C@@H]3CC[C@@H](C3)[C@@H]2C(=O)N1c1ccc([N+](=O)[O-])c(C(F)(F)F)c1`, for which, in assay [1], the Ki was found to be 5 nM. Also, the IC50 in assay [2] is 10 nM; in assay [3], more than 5000 nM.

`CCCCc1ccc(C(=O)N2C[C@@H]3C[C@H]2[C@@H]2C(=O)N(c4ccc([N+](=O)[O-])cc4)C(=O)N32)cc1`: the affinity in assay [1], expressed as Ki, was 70 nM. Moreover, the IC50 in assay [2] was found to be 60 nM; in assay [3] it was 4750 nM.

`CCCCc1ccc(C(=O)N2C[C@@H]3C[C@H]2[C@@H]2C(=O)N(c4ccc(C#N)cc4)C(=O)N32)cc1` registered a Ki in assay [1] of 100 nM. The IC50 amounted to 580 nM in assay [2] and 6800 nM in assay [3].

In turn, `CC(C)(C)OC(=O)N1C[C@@H]2C[C@H]1[C@@H]1C(=O)N(c3ccc(C#N)c(C(F)(F)F)c3)C(=O)N21` yielded a Ki in assay [1] of 40 nM. In addition, the IC50 in assay [2] is 770 nM; in assay [3], 4380 nM.

As to `O=C1[C@H]2[C@@H]3C[C@@H](CN3C(=O)Oc3ccc(F)cc3)N2C(=O)N1c1ccc([N+](=O)[O-])c2ccccc12`, the Ki in assay [1] was 10 nM. The IC50 in assay [2] was determined as 340 nM; in assay [3] it was 30000 nM.

Take `O=C1[C@H]2[C@@H]3C[C@@H](CN3C(=O)c3ccccc3)N2C(=O)N1c1ccc([N+](=O)[O-])cc1`: in assay [1], the affinity, expressed as Ki, was 10 nM. Moreover, the IC50 was more than 5000 nM in assay [2] and 2540 nM in assay [3].

With `CC(C)(C)OC(=O)N1C[C@@H]2C[C@H]1[C@@H]1C(=O)N(c3ccc(C#N)cc3)C(=O)N21`, the affinity in assay [1] corresponds to a Ki of 240 nM. Besides, the IC50 in assay [2] came to 2540 nM; in assay [3], 4970 nM.
